Patent US20230241063A1, “METHODS OF TREATING PROSTATE CANCER” (Celgene Quanticel Research, Inc., priority 2020, published 2023)
Entries after “also recorded” stand apart in the source; their conditions may differ.

Assays:
LNCaP-AR cells = experiment: Proliferation assay (Cell Titer-Glo) in LNCaP-AR cells; assay type: cell-based, human; details: single agent, 3 days
PC3 cells = experiment: Proliferation assay (Cell Titer-Glo) in PC3 cells; assay type: cell-based, human; details: single agent, 3 days, CellTiter Glo
LNCaP cells = experiment: Proliferation assay (Cell Titer-Glo) in LNCaP cells; assay type: cell-based, human; details: single agent, 6 days
DKO cells = experiment: Proliferation assay (Cell Titer-Glo) in DKO cells; assay type: cell-based, mouse; details: Compound A alone
Krt8 [1] = experiment: Krt8 gene expression by qPCR in TKO cells; assay type: cell-based, mouse; details: single agent, 8 days
Krt8 [2] = experiment: Krt8 gene expression by qPCR in DKO cells; assay type: cell-based, mouse; details: 8 days, enzalutamide 10 uM in the combination
[3] = test system: LNCaP-AR CRISPRi TP53/RB1 cells; experiment: Proliferation assay (Cell Titer-Glo) in LNCaP-AR CRISPRi TP53/RB1 cells; assay type: cell-based, human; details: single agents, 6 days, LNCaP_AR guideTP53/RB1 cells
VCaP cells = experiment: Proliferation assay (Cell Titer-Glo) in VCaP cells; assay type: cell-based, human; details: 3 days; enzalutamide 10 uM in the combination
TKO cells = experiment: Proliferation assay (Cell Titer-Glo) in TKO cells; assay type: cell-based, mouse; details: Compound A alone

| Structure (SMILES) | effect on cell proliferation (LNCaP-AR cells) | effect on cell proliferation of PC3 cells (PC3 cells) | effect on proliferation of LNCaP cells (LNCaP cells) | effect on DKO cell proliferation (DKO cells) | concentration of Compound A able to induce the expression of Krt8 (Krt8 [1]) [µM] | induction of Keratin8 (Krt8) expression (Krt8 [2]) [fold] | effect on proliferation [3] | effect on proliferation of VCaP cells (VCaP cells) | effect on TKO cell proliferation (TKO cells) | effect on proliferation ([3]; listed as ENZA) |
| --- | --- | --- | --- | --- | --- | --- | --- | --- | --- | --- |
| COc1ccc(-c2c(-c3ccc(C#N)c(F)c3)nc(N3CCC(N)CC3)n(C)c2=O)cc1F [Compound A, 4-[2-(4-amino-piperidin-1-yl)-5-(3-fluoro-4-methoxy-phenyl)-1-methyl-6-oxo-1,6-dihydro-pyrimidin-4-yl]-2-fluoro-benzonitrile] | no effect on cell proliferation | did not affect cell proliferation; also recorded: does not affect cell proliferation | no effect on proliferation; also recorded: did not affect proliferation | mild effect | ≥ 1 | 1.5 | do not affect proliferation; also recorded: did not affect proliferation | no effect on proliferation; also recorded: did not affect proliferation | mild effect |  |
| CNC(=O)c1ccc(N2C(=S)N(c3ccc(C#N)c(C(F)(F)F)c3)C(=O)C2(C)C)cc1F [enzalutamide, 4-{3-[4-cyano-3-(trifluoromethyl)phenyl]-5,5-dimethyl-4-oxo-2-sulfanylideneimidazolidin-1-yl}-2-fluoro-N-methylbenzamide, reference compound] |  | resistant |  |  |  |  | do not affect proliferation |  |  | did not affect proliferation |
